Laboratory results taken from US20250154548A1, “CONTROL OF ENZYMATIC NUCLEIC ACID SYNTHESIS VIA ELECTROCHEMICAL MEANS” (The Charles Stark Draper Laboratory, Inc., priority 2023, published 2025).

How the values were obtained:
[1] = target: T1, TdT-dNTP conjugates (C7-C) (Mus musculus, UniProt P09838, C155A/C188A/C216N/C302P/C378E/C404A/C438A/D179A/D325G/D356E/D411H/D441E/D501E/E183G/E226Q/E418G/E487R/F267Y/F368W/G227E/G413Q/H416D/I229L/K247Q/K250C/K276D/L167K/L260P/L327T/L381Q/M192R/M313Q/M339K/M471L/N304T/Q166K/Q278R/Q287R/Q359K/Q371K/Q390L/R483N/S195A/S223R/S248A/S275E/S282T/S312E/T321Q/T465R/V311I/V320W/V484T); test: Bead-based TdT extension assay; type: biochemical; conditions: for inhibition of TdT extension: various chelator concentrations
T1 construct: nucleotide (dNTP) covalently tethered through a cleavable linker; That it is dCTP and sits on Cys102 is my inference from the name C7-C and from K102C
T1 sequence (P09838 149-510 with the stated changes): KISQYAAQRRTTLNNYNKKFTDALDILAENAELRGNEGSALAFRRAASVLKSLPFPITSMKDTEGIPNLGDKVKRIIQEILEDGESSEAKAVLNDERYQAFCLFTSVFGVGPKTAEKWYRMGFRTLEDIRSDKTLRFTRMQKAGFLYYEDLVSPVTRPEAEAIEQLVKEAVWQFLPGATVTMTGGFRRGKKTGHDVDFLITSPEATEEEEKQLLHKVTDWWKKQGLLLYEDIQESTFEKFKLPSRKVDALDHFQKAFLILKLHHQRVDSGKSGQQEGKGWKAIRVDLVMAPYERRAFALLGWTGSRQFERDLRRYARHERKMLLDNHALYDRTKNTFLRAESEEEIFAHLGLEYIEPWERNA
Experimental: Extension assay was performed for 2 minutes at 37° C.
The ability of chelators to inhibit stepwise addition of nucleotides via TdT-dNTP conjugates was tested using a bead based assay: Magnetic beads (Dynabeads MyOne streptavidin beads (C1)) were functionalized with biotinylated, double-stranded DNA (dsDNA) that contains a 3′ 30-base overhang, which serves as the seed oligo for extension. Beads were prepared in buffer (20 mM potassium phosphate, 100 mM NaCl, pH 6.5) and washed with 3 times with Superblock prior to use. TdT-dNTP conjugates were prepared at 10 μM concentrations in buffer solution (20 mM potassium phosphate buffer, 100 mM NaCl, pH 6.5). Chelators and MnCl2 solutions were prepared at appropriate ratios (in water) so that final reaction concentrations were at 125 nM in MnCl2 and incubated for 10 minutes at room temperature. Once incubation was complete, TdT-dNTP conjugates were added to the chelator/MnCl2 solutions so that TdT-dNTP conjugates were at a final concentration of 5 μM. As controls, solutions with no chelator or with TCEP (for recovery activity) were also prepared.
Once all reagents were prepared, ds-DNA functionalized beads (10 μL volume) were added to low-bind Eppendorf tubes, followed by the TdT-dNTP conjugate/chelator/MnCl2 solution (50 μL total reaction volume). The tubes were incubated at 37° C. for 2 min, then tubes were placed on ice for 1 min. The beads were washed by placing tubes on a magnetic tube rack three times with 1 mL of buffer (20 mM potassium phosphate, 100 mM NaCl, pH 6.5). To elute the ssDNA from the washed beads, the tubes were placed in the magnetic rack, and the supernatant was removed and replaced with 0.1 M NaOH (aq). After thorough mixing with a pipette and re-settling of the beads using the magnetic rack, the supernatant was transferred to a fresh low-bind tube, and 50 μL of 0.1 M HCl (aq) was added to neutralize the solution.
Sequencing sample preparation began with polyadenylation (for sequences expected to end in thymine, cytosine, or guanine) or the addition of a poly(T) tail (for sequences expected to end in adenine) to the 3′ end of each DNA sample using commercial TdT. The samples were then amplified using primers that bind to a conserved 5′ sequence and the complementary 3′ tail while incorporating Illumina sequencing priming sites into the synthesized amplicons. This step was performed using qPCR in order to achieve optimal amplification of all samples regardless of input DNA concentration. A portion of each PCR product was analyzed by gel electrophoresis to confirm the size and relative abundance of the amplicons. The products of all samples were then normalized based on relative abundance and used as template for a second PCR reaction, which incorporated Illumina flow cell adaptors and a variable index into each sample. The products of the final PCR reaction were characterized by gel electrophoresis and all indexed samples were pooled together proportionally based on relative abundance. Size selection and purification of the pooled library was performed by DNA gel extraction and the final library was analyzed by Qubit dsDNA HS assay and Tapestation D1000 screentape to determine the final molar concentration. The library was then diluted, denatured and sequenced following standard Illumina protocols.

[2] = target: wild-type TdT (Mus musculus, UniProt P09838); test: TdT extension assay with DNA-intercalating dye (SYTO 13); type: biochemical; conditions: metal cofactor MnCl2 pre-incubated with chelator; free nucleotides, ssDNA oligomer
Sequence of wild-type TdT (P09838 149-510): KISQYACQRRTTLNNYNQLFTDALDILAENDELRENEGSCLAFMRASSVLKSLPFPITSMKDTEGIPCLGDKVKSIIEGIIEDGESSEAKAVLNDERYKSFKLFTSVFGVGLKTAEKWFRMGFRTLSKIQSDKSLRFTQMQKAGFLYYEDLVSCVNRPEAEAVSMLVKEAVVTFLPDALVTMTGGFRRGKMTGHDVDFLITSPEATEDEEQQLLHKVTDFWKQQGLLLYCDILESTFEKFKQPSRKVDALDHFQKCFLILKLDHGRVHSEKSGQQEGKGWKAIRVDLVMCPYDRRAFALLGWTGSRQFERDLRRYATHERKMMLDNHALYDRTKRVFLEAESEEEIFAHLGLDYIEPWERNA
Experimental: FIG. 14 provides data from an extension assay wherein wild-type TdT is incubated with a single-stranded DNA oligomer in the presence of free nucleotides and a DNA-intercalating dye (SYTO 13). As DNA synthesis occurs, fluorescent signal increases as more interactions of the intercalating dye with the ssDNA leads to higher fluorescent signal.

[3] = FLPA fluorescence intensity versus bulk electrolyte pH calibration; type: physicochemical; conditions: from fluorescence intensity vs pH
Description: FIGS. 3A-C show how voltage-induced pH change can be visualized in real-time with a freely diffusing non-electroactive fluorescent probe. […] A large Pt counter electrode (CE, anode) surrounds a smaller Pt working electrode (WE, cathode). The two electrodes are separated by a 10 μm dielectric SiO2 region. The WE (410 μm×510 μm) contains a microarray of 300-nm diameter wells that cannot be optically resolved but appear as a smaller square region (˜250 μm×325 μm), made brighter by optical interference. The microarray is used as the region of interest (ROI) for all subsequent analysis. Images were acquired with an Excelitas X-Cite Xylis XT720S (360-720 nm LED) source, 1s exposure time, and GFP (525/50 nm) filter set.
Data points represent the average of three technical replicates, and error bars represent one standard deviation. The intensity follows a sigmoidal relationship as the fraction of deprotonated, fluorescent FLPA (inset) increases with pH (pKa˜6.5). Thus, FLPA is sensitive to an acid-OFF/neutral-ON pH switch over pH 5 to 8. The visualization strategy is amenable to other non-electroactive probes with different pKa values.

[4] = 5 μM C7-C, 0.250 mM Mn2+, 2 minutes at 37° C.

Structure (SMILES) | inhibition of TdT extension [1, 4] | assayed ssDNA growth (fluorescent signal) [2] | fraction of extended sequences ([1]; various chelator:metal ratios, 5 μM C7-C, 0.250 mM Mn2+, 2 minutes at 37° C.) | pKa [3] | TdT activity with chelator pre-incubated with reducing agent TCEP ([1]; TCEP reducing agent added, chelator cleaved)
c1ccc(SSc2ccccn2)nc1 [DTP, 2,2′-dithiopyridine, reference compound] | inhibition dependence on feed ratio of metal to inhibitor | – | – | – | –
O=C(O)CN(CCN(CC(=O)O)CC(=O)O)CC(=O)O [EDTA, Ethylenediaminetetraacetic Acid, reference compound] | – | little-to-no-assayed ssDNA growth | markedly decreased | – | –
NCCOCCOCCOCCOCCOCCOCCNC(=S)Nc1ccc2c(c1)C(=O)OC21c2ccc(O)cc2Oc2cc(O)ccc21 [FLPA, fluorescein-PEG6-amine] | – | – | – | ~6.5 | –
O=C(NCCc1ccc(O)c(O)c1)OCCSSCCOC(=O)NCCc1ccc(O)c(O)c1 [catechol 1, disulfanediylbis(ethane-2,1-diyl) bis((3,4-dihydroxyphenethyl)carbamate)] | inhibition dependence on feed ratio of metal to inhibitor and choice of chelator | no assayed ssDNA growth is observed | – | – | TdT activity is recovered
O=C(O)CN(CC(=O)O)C(=O)OCCSSCCOC(=O)N(CC(=O)O)CC(=O)O [tetraacid 2, 3,14-bis(carboxymethyl)-4,13-dioxo-5,12-dioxa-8,9-dithia-3,14-diazahexadecanedioic acid] | inhibition dependence on feed ratio of metal to inhibitor and choice of chelator | no assayed ssDNA growth is observed | – | – | –
